Marks after values point to notes of the source that are not given here.
Columns and labels:
[1] = tested on: HCl-Ethanol inducing gastritis model; experiment: HCl-Ethanol inducing gastritis model; assay type: in vivo, white rats; details: for anti-gastritis efficacy: all administration groups
Procedure: After white rats have been fasted for 24 hours, CD-101, CD-102 and CD-103 compound have been orally administered according to method disclosed in Mizui et al., Jap. J. Pharmacol. 33: pp. 939-945 (1983). After 1 hour, 1.5 ml of 60% ethanol including 150 mM HCl has been orally administered to each animal. 1 hour later, animals have been sacrificed by cervical dislocation. After removing the stomach, the stomach has been fixed by injection of 13 ml of 2% formalin for 1 hour. After fixed stomach has been spread out, the lesion area has been measured using the photo by digital camera. Computer program Image J 1.38 (NIH, Bethesda, Md.) has been applied for measuring gastric lesion area (mm^2) The lesion inhibition rate has been calculated according to following equation. Further, 50% effective dose (ED50) has been also calculated using regression analysis.
Lesion inhibition rate(%)={gastric lesion area of control group(mm^2)−gastric lesion area of drug administration group(mm^2)}/gastric lesion area of control group(mm^2)×100

[2] = tested on: Chinese hamster lung (CHL) cell; experiment: Chromosomal aberration test using Chinese hamster lung (CHL) cell; assay type: cell-based; details: for induction of chromosomal aberration: CHL cell, overall conclusion
Text: For measuring the induction of chromosomal aberration, the chromosomal aberration test has been carried out using Chinese hamster lung (CHL) cell. 2 kinds of methods have been adopted, such as, metabolic activation method (+S9) using metabolic activation system and direct method (−S9) without metabolic activation system.
For determining the test material reacting concentration, the cell growth inhibition test has been carried out. The test material has been dissolved and diluted in dimethyl sulfoxide (DMSO). Regardless of metabolic activation system, 12 concentration steps (2.43, 4.87, 9.75, 19.5, 39.1, 78.1, 156.3, 312.5, 625, 1250, 2500, 5000 μg/ml) of test material have been prepared. The cells have been cultured for 24 hours as the same way of main test. […] The medium has been further cultured for 18 hours.
Based upon the data of cell growth inhibition test, maximum concentration has been determined when the cell growth has been inhibited up to 50% as the relative cell numbers.
Regardless of metabolic activation system, the test materials have been prepared after 24 hours from the initiation of test. Then, the number of chromosomal aberration has been counted.

[3] = tested on: indomethacin inducing stomach ulcer model; experiment: Indomethacin inducing stomach ulcer model; assay type: in vivo, white rats; details: oral; for anti-stomach ulcer efficacy: all administration groups
Procedure: After white rats have been fasted for 24 hours, CD-101, CD-102 and CD-103 compound have been orally administered according to method disclosed in Yamasaki et al., Jap. J. Pharmacol. 49: pp. 441-448 (1989). After 1 hour, indomethacin (50 mg/kg) has been orally administered to each animal After fasting for 5 hours, animals have been sacrificed by cervical dislocation. After removing the stomach, the stomach has been fixed by injection of 13 ml of 2% formalin for 1 hour. After fixed stomach has been spread out, the lesion area has been measured using the photo by digital camera. Computer program Image J 1.38 (NIH, Bethesda, Md.) has been applied for measuring gastric lesion area (mm^2) The lesion inhibition rate and 50% effective dose (ED50) have been calculated as the same manner of HCl-EtOH model.

| SMILES | Chromosomal aberration test Results ([2]; +S9, dose 10 μg/kg) | induction of chromosomal aberration [2] | Chromosomal aberration test Results ([2]; −S9, dose 2.5 μg/ml) | Chromosomal aberration test Result ([2]; Table 5, +S9, dose not stated) | Chromosomal aberration test Result ([2]; Table 5, −S9, dose not given) | anti-gastritis efficacy ([1]; oral) | Lesion inhibition rate ([1]; oral, dose 1 mg/kg) [%] | Lesion inhibition rate ([1]; oral, dose 3 mg/kg) [%] | Lesion inhibition rate ([1]; oral, dose 10 mg/kg) [%] | anti-stomach ulcer efficacy [3] | Lesion inhibition rate ([3]; dose 1 mg/kg) [%] | Lesion inhibition rate ([3]; dose 3 mg/kg) [%] | Lesion inhibition rate ([3]; dose 10 mg/kg) [%] | further results |
| --- | --- | --- | --- | --- | --- | --- | --- | --- | --- | --- | --- | --- | --- | --- |
| CC1=C2C3OC(=O)[C@@H](C)[C@@H]3CC[C@@]2(C)C=CC1=O (stereo partly drawn) |  |  |  |  |  |  |  |  |  |  |  |  |  | Lesion inhibition rate ([1]; Table 2, ineffective compounds, dose not stated): no effect |
| CO[C@@]12[C@H](COC(N)=O)C3=C(C(=O)C(C)=C(N)C3=O)N1C[C@@H]1N[C@@H]12 [Mitomycin C, reference compound] |  |  |  |  |  |  |  |  |  |  |  |  |  | Chromosomal aberration test Results ([2]; −S9, dose 0.5 μg/kg): positive |
| O=C(NC(Cc1cc(=O)[nH]c2ccccc12)C(=O)O)c1ccc(Cl)cc1 (stereo not drawn) [Rebamipide, reference compound] |  |  |  |  |  |  |  |  |  |  |  |  |  | Lesion inhibition rate ([1]; oral, dose 50 mg/kg): 30%; Lesion inhibition rate ([3]; dose 50 mg/kg): 49.6% |
| C=C1C(=O)O[C@@H]2/C=C(\C)CC/C=C(\C)C[C@@H](OC(C)=O)C12 (stereo partly drawn) [reference compound] |  |  |  | positive positive | positive positive |  |  |  |  |  |  |  |  |  |
| C=C1C(=O)O[C@@H]2/C=C(\C)CCC(O)C(C)(O)C[C@@H](OC(C)=O)C12 (stereo partly drawn) [reference compound] |  |  |  | positive positive | positive positive |  |  |  |  |  |  |  |  |  |
| CC(=O)O[C@@H]1/C=C(\C)CCC/C(C)=C/[C@H]2OC(=O)[C@H](CN(C)C)C12 (stereo partly drawn) [reference compound] |  |  |  | positive positive | positive positive |  |  |  |  |  |  |  |  |  |

Further lines, with some results ahead:

| Chromosomal aberration test Results ([2]; +S9, dose 10 μg/kg) | induction of chromosomal aberration [2] | Chromosomal aberration test Results ([2]; −S9, dose 2.5 μg/ml) | Chromosomal aberration test Result ([2]; Table 5, +S9, dose not stated) | Chromosomal aberration test Result ([2]; Table 5, −S9, dose not given) | SMILES | anti-gastritis efficacy ([1]; oral) | Lesion inhibition rate ([1]; oral, dose 1 mg/kg) [%] | Lesion inhibition rate ([1]; oral, dose 3 mg/kg) [%] | Lesion inhibition rate ([1]; oral, dose 10 mg/kg) [%] | anti-stomach ulcer efficacy [3] | Lesion inhibition rate ([3]; dose 1 mg/kg) [%] | Lesion inhibition rate ([3]; dose 3 mg/kg) [%] | Lesion inhibition rate ([3]; dose 10 mg/kg) [%] | further results |
| --- | --- | --- | --- | --- | --- | --- | --- | --- | --- | --- | --- | --- | --- | --- |
| negative | do not induce the chromosomal aberration | negative |  |  | C=C1C(=O)O[C@@H]2[C@@H](O)[C@]3(C)CC[C@H]3[C@](C)(OC)CC[C@@H]12 [CD-101] | dose dependent manner | 42.3 | 74.7 | 91.8 | dose dependent manner | 26.9 | 56.6 | 73.1 | Chromosomal aberration test Results ([2]; +S9, dose 20 μg/kg): negative; Chromosomal aberration test Results ([2]; +S9, dose 40 μg/kg): negative; Chromosomal aberration test Results ([2]; −S9, dose 5 μg/kg): negative; Chromosomal aberration test Results ([2]; −S9, dose 10 μg/kg): negative |
| negative | do not induce the chromosomal aberration | negative |  |  | C=C1C(=O)O[C@@H]2[C@@H]3[C@@H](CC[C@@]3(C)O)C(=C)CC[C@@H]12 [CD-102] | dose dependent manner | 43.0 | 70.4 | 94.9 | dose dependent manner | 41.6 | 56.1 | 77.2 | Chromosomal aberration test Results ([2]; +S9, dose 5 μg/kg): negative; Chromosomal aberration test Results ([2]; +S9, dose 20 μg/kg): negative; Chromosomal aberration test Results ([2]; −S9, dose 1.25 μg/kg): negative; Chromosomal aberration test Results ([2]; −S9, dose 5 μg/kg): negative; ED50 ([1]; Rattus norvegicus, oral, regression analysis of lesion inhibition, read-out: 50% effective dose (ED50)): 1.31 mg/kg; Gastric lesion area ([1]; oral, dose 1 mg/kg): 133.5 ± 21.0* mm^2; Gastric lesion area ([1]; oral, dose 3 mg/kg): 69.4 ± 18.4* mm^2; Gastric lesion area ([1]; oral, dose 10 mg/kg): 11.9 ± 10.0* mm^2; ED50 ([3]; Rattus norvegicus, regression analysis of lesion inhibition, read-out: 50% effective dose (ED50)): 1.82 mg/kg; Gastric lesion area ([3]; dose 1 mg/kg): 35.0 ± 5.2 mm^2; Gastric lesion area ([3]; dose 3 mg/kg): 26.3 ± 6.8* mm^2; Gastric lesion area ([3]; dose 10 mg/kg): 13.6 ± 2.9* mm^2 |
| negative | do not induce the chromosomal aberration | negative |  |  | C=C1C(=O)O[C@@H]2[C@@H]3[C@@H](CC[C@@]3(C)O)[C@](C)(OC)CC[C@@H]12 [CD-103] | dose dependent manner | 56.9 | 66.9 | 99.5 | dose dependent manner | 37.9 | 57.3 | 74.0 | Chromosomal aberration test Results ([2]; +S9, dose 2.5 μg/ml): negative; Chromosomal aberration test Results ([2]; +S9, dose 5 μg/kg): negative; Chromosomal aberration test Results ([2]; −S9, dose 0.625 μg/kg): negative; Chromosomal aberration test Results ([2]; −S9, dose 1.25 μg/kg): negative; Lesion inhibition rate ([1]; oral, dose 30 mg/kg): 99.5%; 50% effective dose (ED50) ([1]; oral, regression analysis of lesion inhibition): 2.55 mg/kg; 50% effective dose (ED50) ([3]; regression analysis of lesion inhibition): 2.06 mg/kg |

From US20150299155A1, “Sesquiterpene lactone-based pharmaceutical composition for treating gastrointestinal diseases” (CHO DANG PHARM. CO., LTD., priority 2012, published 2015)
